In patent publication US12441726B2, “Compounds and uses thereof” (Foghorn Therapeutics Inc., priority 2020, dated 2025):

How the values were obtained:
[1] = target: BRG-1 (Homo sapiens, UniProt P51532); assay: ATPase catalytic activity assay (ADP-Glo), BRG-1; conditions: for Emax: 1 h, read-out: BRG1 Max % Inhibition, ADP-Glo, 30 nM BRG-1, 400 μM ATP
Description: The ATPase catalytic activity of BRM or BRG-1 was measured by an in vitro biochemical assay using ADP-Glo™ (Promega, V9102). The ADP-Glo™ kinase assay is performed in two steps once the reaction is complete. The first step is to deplete any unconsumed ATP in the reaction. The second step is to convert the reaction product ADP to ATP, which will be utilized by the luciferase to generate luminesce and be detected by a luminescence reader, such as Envision.
Then following addition of 5 μL of ADP-Glo™ Reagent provided in the kit, the reaction incubates at room temperature for 40 minutes. Then 10 μL of Kinase Detection Reagent provided in the kit is added to convert ADP to ATP, and the reaction incubates at room temperature for 60 minutes. Finally, luminescence measurement is collected with a plate-reading luminometer, such as Envision.

[2] = target: BRM (Homo sapiens, UniProt P51531); assay: ATPase catalytic activity assay (ADP-Glo), BRM; conditions: 30 nM BRM, 400 μM ATP; for IC50: BRM ATPase: IC50 (uM)
BRM, sequence (P51531 whole entry): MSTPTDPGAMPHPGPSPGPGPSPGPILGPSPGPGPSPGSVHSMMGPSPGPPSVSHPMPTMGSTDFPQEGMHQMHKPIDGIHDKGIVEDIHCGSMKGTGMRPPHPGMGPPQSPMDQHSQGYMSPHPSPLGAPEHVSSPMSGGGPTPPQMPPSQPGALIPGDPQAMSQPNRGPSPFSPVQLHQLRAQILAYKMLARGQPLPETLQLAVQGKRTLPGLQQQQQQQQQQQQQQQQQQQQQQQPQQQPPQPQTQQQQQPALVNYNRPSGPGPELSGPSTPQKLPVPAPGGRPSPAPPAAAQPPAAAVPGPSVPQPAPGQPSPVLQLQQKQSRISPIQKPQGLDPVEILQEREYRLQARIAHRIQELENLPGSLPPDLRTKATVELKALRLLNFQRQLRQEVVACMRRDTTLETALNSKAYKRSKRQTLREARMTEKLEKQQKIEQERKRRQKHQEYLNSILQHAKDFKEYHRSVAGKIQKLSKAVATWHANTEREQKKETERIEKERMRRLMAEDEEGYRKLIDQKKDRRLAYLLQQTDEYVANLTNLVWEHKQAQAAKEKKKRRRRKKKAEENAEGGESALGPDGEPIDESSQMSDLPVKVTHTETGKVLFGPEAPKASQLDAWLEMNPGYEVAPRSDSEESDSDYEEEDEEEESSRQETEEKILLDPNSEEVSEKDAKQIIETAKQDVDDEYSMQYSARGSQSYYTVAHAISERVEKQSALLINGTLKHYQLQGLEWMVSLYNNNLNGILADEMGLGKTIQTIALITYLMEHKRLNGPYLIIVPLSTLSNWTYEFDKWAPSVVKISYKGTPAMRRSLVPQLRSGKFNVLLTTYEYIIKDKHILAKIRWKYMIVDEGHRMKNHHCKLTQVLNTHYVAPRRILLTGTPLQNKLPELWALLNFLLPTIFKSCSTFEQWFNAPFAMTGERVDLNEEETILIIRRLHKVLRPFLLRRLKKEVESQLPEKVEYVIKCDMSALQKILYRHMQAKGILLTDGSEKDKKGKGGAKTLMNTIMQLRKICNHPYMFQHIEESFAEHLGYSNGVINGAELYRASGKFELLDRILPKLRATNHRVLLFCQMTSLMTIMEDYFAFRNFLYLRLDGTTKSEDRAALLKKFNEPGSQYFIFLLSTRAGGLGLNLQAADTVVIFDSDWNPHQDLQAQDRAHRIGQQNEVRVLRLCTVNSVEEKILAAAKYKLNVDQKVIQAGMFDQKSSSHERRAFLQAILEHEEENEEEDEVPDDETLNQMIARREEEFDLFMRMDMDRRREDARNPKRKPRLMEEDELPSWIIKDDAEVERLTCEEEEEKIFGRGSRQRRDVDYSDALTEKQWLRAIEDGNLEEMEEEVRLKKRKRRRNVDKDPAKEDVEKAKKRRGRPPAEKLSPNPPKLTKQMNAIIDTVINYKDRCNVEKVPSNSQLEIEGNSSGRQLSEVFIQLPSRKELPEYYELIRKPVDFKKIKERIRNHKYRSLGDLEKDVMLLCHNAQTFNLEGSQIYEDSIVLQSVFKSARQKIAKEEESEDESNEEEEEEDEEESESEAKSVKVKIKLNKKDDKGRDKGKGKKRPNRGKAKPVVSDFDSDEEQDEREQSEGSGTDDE

BRG-1, sequence (P51532 whole entry): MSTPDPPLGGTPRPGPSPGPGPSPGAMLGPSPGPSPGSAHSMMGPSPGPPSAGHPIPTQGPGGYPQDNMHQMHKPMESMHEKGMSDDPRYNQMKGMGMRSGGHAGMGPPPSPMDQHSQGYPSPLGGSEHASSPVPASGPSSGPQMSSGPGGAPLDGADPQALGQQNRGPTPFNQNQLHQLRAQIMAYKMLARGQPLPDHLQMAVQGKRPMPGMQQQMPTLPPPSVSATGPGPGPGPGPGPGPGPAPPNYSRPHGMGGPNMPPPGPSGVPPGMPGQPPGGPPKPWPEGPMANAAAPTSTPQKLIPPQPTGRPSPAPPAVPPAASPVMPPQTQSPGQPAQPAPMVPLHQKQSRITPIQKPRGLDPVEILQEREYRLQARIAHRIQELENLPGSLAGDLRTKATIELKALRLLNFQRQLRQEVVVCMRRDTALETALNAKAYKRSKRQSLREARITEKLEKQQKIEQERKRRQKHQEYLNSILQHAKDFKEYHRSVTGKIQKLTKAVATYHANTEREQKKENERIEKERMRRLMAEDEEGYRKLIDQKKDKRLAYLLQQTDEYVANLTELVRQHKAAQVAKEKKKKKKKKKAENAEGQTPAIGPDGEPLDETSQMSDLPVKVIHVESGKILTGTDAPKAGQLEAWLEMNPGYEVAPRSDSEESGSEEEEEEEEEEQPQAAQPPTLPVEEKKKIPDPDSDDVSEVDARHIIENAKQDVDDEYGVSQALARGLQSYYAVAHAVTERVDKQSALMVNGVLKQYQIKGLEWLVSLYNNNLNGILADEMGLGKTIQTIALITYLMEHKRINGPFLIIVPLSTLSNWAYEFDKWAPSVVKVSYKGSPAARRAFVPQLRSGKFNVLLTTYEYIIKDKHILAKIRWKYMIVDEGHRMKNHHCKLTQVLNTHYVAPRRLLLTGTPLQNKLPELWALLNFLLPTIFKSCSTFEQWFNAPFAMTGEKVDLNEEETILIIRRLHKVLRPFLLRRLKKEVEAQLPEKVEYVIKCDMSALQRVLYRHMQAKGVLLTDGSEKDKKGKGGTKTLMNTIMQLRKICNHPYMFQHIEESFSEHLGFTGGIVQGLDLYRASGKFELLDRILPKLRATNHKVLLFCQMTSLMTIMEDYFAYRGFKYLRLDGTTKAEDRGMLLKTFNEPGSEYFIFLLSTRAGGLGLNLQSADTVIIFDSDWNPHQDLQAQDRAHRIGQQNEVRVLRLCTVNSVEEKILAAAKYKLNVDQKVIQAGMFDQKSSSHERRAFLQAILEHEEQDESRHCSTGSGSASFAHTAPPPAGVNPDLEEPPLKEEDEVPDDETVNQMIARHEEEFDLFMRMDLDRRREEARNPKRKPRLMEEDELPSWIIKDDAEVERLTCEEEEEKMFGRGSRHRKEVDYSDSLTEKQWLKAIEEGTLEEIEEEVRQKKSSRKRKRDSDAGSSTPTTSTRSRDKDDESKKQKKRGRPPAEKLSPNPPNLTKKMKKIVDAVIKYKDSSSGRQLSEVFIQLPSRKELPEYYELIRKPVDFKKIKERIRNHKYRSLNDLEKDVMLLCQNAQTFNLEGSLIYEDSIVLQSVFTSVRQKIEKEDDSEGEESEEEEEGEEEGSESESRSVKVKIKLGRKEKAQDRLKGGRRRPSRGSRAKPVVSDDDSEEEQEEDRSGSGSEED

Row | IC50 [1] | Emax [1] | BRM Max % Inhibition [2] | IC50 [2] | Structure (SMILES)
1 | 0.1 to 0.5 µM | 89% | 98% | < 0.1 µM | C[C@@]1(F)COCc2ccc(C(=O)NCc3cc4nc(-c5ccnc(N6CCC6)n5)cnc4cn3)cc21 [Compound 190]
2 | 0.5 to 1 µM | 76% | 97% | < 0.1 µM | C[C@@]1(F)COCc2ccc(C(=O)NCc3cc4nc(-c5ccnc(C6CC6)n5)cnc4cn3)cc21 [Compound 191]
3 | 0.5 to 1 µM | 60% | 93% | 0.1 to 0.5 µM | C[C@@]1(C#N)COCc2ccc(C(=O)NCc3cc4nc(-c5cccc(C6(C(F)F)COC6)c5)ccc4cn3)cc21 [Compound 194]
4 | > 1 µM | 59% | 86% | 0.1 to 0.5 µM | Cn1ccc2ccc(-c3ccc4cnc(CNC(=O)c5ccc6c(c5)[C@](C)(C#N)COC6)cc4n3)nc2c1=O [Compound 196]
5 | > 1 µM | 14% | 85% | 0.1 to 0.5 µM | C[C@@]1(F)COCc2ccc(C(=O)NCc3cc4nc(-c5ccnc(C6CC6)n5)sc4cn3)cc21 [Compound 199]
6 | 0.5 to 1 µM | 71% | 97% | 0.1 to 0.5 µM | COc1nn(C2CCC2)cc1-c1ccc2cnc(CNC(=O)c3ccc4c(c3)[C@](C)(C#N)COC4)cc2n1 [Compound 200]

More lines, now with the values behind:

Row | Structure (SMILES) | IC50 [1] | Emax [1] | BRM Max % Inhibition [2] | IC50 [2]
7 | Cc1nn(C2COC2)cc1-c1ccc2cnc(CNC(=O)c3ccc4c(c3)[C@](C)(C#N)COC4)cc2n1 [Compound 188] | > 1 µM | 41% | 93% | 0.1 to 0.5 µM
8 | C[C@@]1(C#N)COCc2ncc(C(=O)NCc3cc4nc(-c5cccc(C6CC6)n5)ccc4nn3)cc21 [Compound 189] | 0.1 to 0.5 µM | 93% | 99% | < 0.1 µM
9 | COc1nn(C(F)F)cc1-c1ccc2cnc(CNC(=O)c3cnc4c(c3)[C@](C)(F)COC4)cc2n1 [Compound 192] | 0.5 to 1 µM | 60% | 94% | 0.1 to 0.5 µM
10 | COc1nn(C(F)F)cc1-c1ccc2cnc(CNC(=O)c3ccc4c(c3)[C@](C)(C#N)COC4)cc2n1 [Compound 193] | 0.5 to 1 µM | 86% | 99% | < 0.1 µM
11 | COc1cc(C)nn1-c1ccc2cnc(CNC(=O)c3ccc4c(c3)[C@](C)(C#N)COC4)cc2n1 [Compound 195] | > 1 µM | 47% | 84% | 0.1 to 0.5 µM
12 | COc1nn(C2CCOC2)cc1-c1ccc2cnc(CNC(=O)c3ccc4c(c3)[C@](C)(C#N)COC4)cc2n1 (some centres unmarked) [Compound 197] | > 1 µM | 59% | 89% | 0.1 to 0.5 µM
13 | C[C@@]1(C#N)COCc2ncc(C(=O)NCc3cc4nc(-c5cccc(C6CC6)c5)ccc4nn3)cc21 [Compound 198] | 0.5 to 1 µM | 76% | 94% | 0.1 to 0.5 µM
14 | COc1nn(C2COC2)cc1-c1ccc2cnc(CNC(=O)c3ccc4c(c3)[C@](C)(F)COC4)cc2n1 [Compound 201] | 0.5 to 1 µM | 76% | 99% | < 0.1 µM
15 | COc1nn(CC(F)F)cc1-c1ccc2cnc(CNC(=O)c3ccc4c(c3)[C@](C)(C#N)COC4)cc2n1 [Compound 202] | 0.5 to 1 µM | 67% | 94% | < 0.1 µM
16 | COCCn1cc(-c2ccc3cnc(CNC(=O)c4ccc5c(c4)[C@](C)(C#N)COC5)cc3n2)c(OC)n1 [Compound 203] | > 1 µM | 26% | 84% | 0.1 to 0.5 µM
17 | C[C@@]1(C#N)COCc2ccc(C(=O)NCc3cc4nc(-c5ccnc(C6(F)CC6)n5)ccc4cn3)cc21 [Compound 204] | 0.5 to 1 µM | 82% | 97% | < 0.1 µM
